Experimental data as given in ChEMBL document CHEMBL3627643, “Synthesis of stereochemically diverse cyclic analogs of tubulysins” (Bioorg Med Chem, 2015).

Target: Tubulin (Sus scrofa) (UniProt P02554+P02550)
Test: Inhibition of pig tubulin polymerization at 5 uM incubated for 20 mins at 37 degC by fluorescence based tubulin polymerization inhibition assay
Format: protein assay

Chain of Tubulin (Sus scrofa) (P02550 whole entry, looked up): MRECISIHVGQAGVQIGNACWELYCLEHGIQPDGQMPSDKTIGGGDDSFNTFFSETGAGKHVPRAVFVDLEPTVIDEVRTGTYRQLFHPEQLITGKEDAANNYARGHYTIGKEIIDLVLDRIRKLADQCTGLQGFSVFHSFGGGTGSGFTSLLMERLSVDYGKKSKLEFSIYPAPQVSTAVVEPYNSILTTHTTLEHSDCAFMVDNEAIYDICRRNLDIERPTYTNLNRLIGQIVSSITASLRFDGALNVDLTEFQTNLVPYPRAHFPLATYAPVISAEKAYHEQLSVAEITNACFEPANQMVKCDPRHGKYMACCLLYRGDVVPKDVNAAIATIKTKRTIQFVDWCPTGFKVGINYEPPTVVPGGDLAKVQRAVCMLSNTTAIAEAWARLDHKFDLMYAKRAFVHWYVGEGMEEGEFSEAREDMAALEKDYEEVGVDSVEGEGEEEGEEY
Chain of Tubulin (Sus scrofa) (P02554 whole entry, looked up): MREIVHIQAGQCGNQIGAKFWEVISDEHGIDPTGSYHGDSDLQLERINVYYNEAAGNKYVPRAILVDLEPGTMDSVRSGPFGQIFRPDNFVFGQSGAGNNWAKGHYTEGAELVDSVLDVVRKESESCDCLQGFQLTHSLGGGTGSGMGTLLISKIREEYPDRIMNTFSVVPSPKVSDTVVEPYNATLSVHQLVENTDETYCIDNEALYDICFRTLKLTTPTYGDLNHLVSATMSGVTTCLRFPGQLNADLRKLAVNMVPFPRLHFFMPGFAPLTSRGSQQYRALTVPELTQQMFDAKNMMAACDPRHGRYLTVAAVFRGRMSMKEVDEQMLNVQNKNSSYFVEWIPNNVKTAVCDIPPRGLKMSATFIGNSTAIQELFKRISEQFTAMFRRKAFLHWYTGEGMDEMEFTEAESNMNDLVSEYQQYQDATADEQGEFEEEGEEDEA

**Q.** For CC[C@H](C)[C@H](NC(=O)[C@H]1CCCCN1C)C(=O)N[C@H]1CCO[C@@H](c2nc(C(=O)NC(C)C)cs2)C1, which inhibition is on record?
**A.** 5.35%

**Q.** Which inhibition does the source give for CC[C@H](C)[C@H](NC(=O)[C@H]1CCCCN1C)C(=O)N[C@@H]1CCO[C@H](c2nc(C(=O)NC(C)C)cs2)C1 here?
**A.** 1.45%

**Q.** How did the inhibition turn out when CC[C@H](C)[C@H](NC(=O)[C@H]1CCCCN1C)C(=O)N[C@H]1CCO[C@H](c2nc(C(=O)NC(C)C)cs2)C1 was run?
**A.** 8.73%

**Q.** For CC[C@H](C)[C@H](NC(=O)[C@H]1CCCCN1C)C(=O)N(C)[C@H]1CCO[C@@H](c2nc(C(=O)NCCN3CCOCC3)cs2)C1, which inhibition is on record?
**A.** 7.46%

**Q.** CC[C@H](C)[C@H](NC(=O)[C@H]1CCCCN1C)C(=O)N(C)[C@H]1CCO[C@@H](c2nc(C(=O)NCCc3ccccn3)cs2)C1 was tested. Which inhibition did it give?
**A.** 20.2%

**Q.** With CC[C@H](C)[C@H](NC(=O)[C@H]1CCCCN1C)C(=O)N(C)[C@H]1CCO[C@@H](c2nc(C(=O)NCCc3ccccc3)cs2)C1 as the compound, how does the inhibition read?
**A.** 5.87%

**Q.** With CC[C@H](C)[C@H](NC(=O)[C@H]1CCCCN1C)C(=O)N[C@@H]1CCO[C@@H](c2nc(C(=O)NCCc3ccccc3)cs2)C1 as the compound, how does the inhibition read?
**A.** 2.23%

**Q.** For CC[C@H](C)[C@@H](C(=O)N[C@H]1CCO[C@@H](c2nc(C(=O)NCCc3ccccc3)cs2)C1)N(C)C, which inhibition is on record?
**A.** 15.8%

**Q.** How did the inhibition turn out when CC[C@H](C)[C@H](NC(=O)[C@H]1CCCCN1C)C(=O)N[C@H]1CCO[C@H](c2nc(C(=O)NCCc3ccccc3)cs2)C1 was run?
**A.** 5.61%

**Q.** With CC[C@H](C)[C@H](NC(=O)[C@H]1CCCCN1C)C(=O)N[C@@H]1CCO[C@H](c2nc(C(=O)NCCc3ccccc3)cs2)C1 as the compound, how does the inhibition read?
**A.** 3.76%

**Q.** How did the inhibition turn out when CC[C@]1(O)C[C@@H]2CN(CCc3c([nH]c4ccccc34)[C@@](C(=O)OC)(c3cc4c(cc3OC)N(C)[C@H]3[C@@](O)(C(=O)OC)[C@H](OC(C)=O)[C@]5(CC)C=CCN6CC[C@]43[C@@H]65)C2)C1 was run?
**A.** 73.9%

**Q.** Which inhibition does the source give for CC[C@H](C)[C@H](NC(=O)[C@H]1CCCCN1C)C(=O)N[C@@H]1CCO[C@@H](c2nc(C(=O)NC(C)C)cs2)C1 here?
**A.** 3.9%

**Q.** CC[C@H](C)[C@H](NC(=O)CN(C)C)C(=O)N[C@H]1CCO[C@@H](c2nc(C(=O)NC(C)C)cs2)C1 was tested. Which inhibition did it give?
**A.** 12.9%

**Q.** How did the inhibition turn out when CC[C@@H](C)[C@H](NC(=O)[C@H]1CCCCN1C)C(=O)N(COC(=O)CC(C)C)[C@H](C[C@@H](OC(C)=O)c1nc(C(=O)N[C@@H](Cc2ccc(O)cc2)C[C@H](C)C(=O)O)cs1)C(C)C was run?
**A.** 72.6%

**Q.** How did the inhibition turn out when CC[C@H](C)[C@H](NC(=O)[C@H]1CCCCN1C)C(=O)N[C@H]1CCO[C@@H](c2nc(C(=O)NCCc3ccccc3)cs2)C1 was run?
**A.** 1.62%

**Q.** CC[C@H](C)[C@H](NC(=O)CN(C)C)C(=O)N[C@H]1CCO[C@@H](c2nc(C(=O)NCCc3ccccc3)cs2)C1 was tested. Which inhibition did it give?
**A.** 19.9%

**Q.** For CC[C@H](C)[C@H](N)C(=O)N[C@H]1CCO[C@@H](c2nc(C(=O)NCCc3ccccc3)cs2)C1, which inhibition is on record?
**A.** 8.52%

**Q.** CC[C@H](C)[C@@H](C(=O)N[C@H]1CCO[C@@H](c2nc(C(=O)NC(C)C)cs2)C1)N(C)C was tested. Which inhibition did it give?
**A.** 16.9%

**Q.** With CC[C@H](C)[C@H](NC(=O)[C@H]1CCCCN1C)C(=O)N(C)[C@H]1CCO[C@@H](c2nc(C(=O)NC(C)C)cs2)C1 as the compound, how does the inhibition read?
**A.** 15.5%

**Q.** CC[C@H](C)[C@H](N)C(=O)N[C@H]1CCO[C@@H](c2nc(C(=O)NC(C)C)cs2)C1 was tested. Which inhibition did it give?
**A.** 10.6%

**Q.** For CC[C@H](C)[C@H](NC(=O)[C@H]1CCCCN1C)C(=O)N(C)[C@H]1CCO[C@@H](c2nc(C(=O)NCCOC)cs2)C1, which inhibition is on record?
**A.** 10.6%

**Q.** CC[C@H](C)[C@H](NC(=O)[C@H]1CCCCN1C)C(=O)N(C)[C@H]1CCO[C@@H](c2nc(C(=O)NCc3ccccc3)cs2)C1 was tested. Which inhibition did it give?
**A.** 10.2%
